In patent publication US20160081985A1, “CENICRIVIROC COMPOSITIONS AND METHODS OF MAKING AND USING THE SAME” (Tobira Therapeutics, Inc., priority 2013, published 2016):

How the values were obtained:
[1] = Dissolution time of acid solubilizers in purified water (FBRM); type: physicochemical; conditions: 200 mg acid in 90 mL purified water, 250 rpm
Method: The results described in Table 1 were performed by adding 200 mg of the acid to 90 mL purified water using a Mettler Toledo mixing chamber held at the specified temperature with an upward pumping four blade impeller at 250 rpm. The disappearance of particles undergoing dissolution was monitored by focused-beam reflectance measurement (FBRM). Data was analyzed by reviewing individual 2 second measurement trends as well as trends averaged over 10 and 30 seconds.

[2] = humans; efavirenz as inducer of CYP3A4; cited from earlier work
[3] = Steady-state vs single dose exposure in various other clinical trials; type: in vivo, human; conditions: different formulations
[4] = Disintegration behavior of tablets in approximately 250 mL water; type: physicochemical; conditions: single tablet in approximately 250 mL water

Dissolution time ([1]; 25° C.) [s] | Dissolution time ([1]; 37° C.) [s] | Compound | further results
312 | 152 | O=C(O)/C=C/C(=O)O [Fumaric, Fumaric Acid] | –
4 | <2 | O=C(O)/C=C\C(=O)O [Maleic, Maleic Acid] | –
– | – | CCCCOCCOc1ccc(-c2ccc3c(c2)/C=C(/C(=O)Nc2ccc([S@@+]([O-])Cc4cncn4CCC)cc2)CCCN3CC(C)C)cc1 [cenicriviroc, (S,E)-8-(4-(2-Butoxyethoxy)phenyl)-1-(2-methylpropyl)-N-(4-(((1-propyl-1H-imidazol-5-yl)methyl)sulfinyl)phenyl)-1,2,3,4-tetrahydrobenzo[b]azocine-5-carboxamide] | Decrease of cenicriviroc plasma concentration by efavirenz [2]: approximately 2 fold; Steady-state exposure level (AUC, day 10) relative to single dose exposure [3]: approximately 1.5 fold
– | – | Nc1ccn([C@@H]2CS[C@H](CO)O2)c(=O)n1 [lamivudine] | Disintegration Observations (mode) [4]: Rapid; Disintegration time [4]: tion <30 seconds
